Data: ChEMBL document CHEMBL4308885, “The development of myeloperoxidase inhibitors” (Bioorg Med Chem Lett, 2019)

What was measured:
Myeloperoxidase [1] = target: T1, Myeloperoxidase (Homo sapiens, UniProt P05164); test: Inhibition of MPO in human neutrophils using H2O2 as substrate measured after 5 mins
T1 sequence (P05164 whole entry): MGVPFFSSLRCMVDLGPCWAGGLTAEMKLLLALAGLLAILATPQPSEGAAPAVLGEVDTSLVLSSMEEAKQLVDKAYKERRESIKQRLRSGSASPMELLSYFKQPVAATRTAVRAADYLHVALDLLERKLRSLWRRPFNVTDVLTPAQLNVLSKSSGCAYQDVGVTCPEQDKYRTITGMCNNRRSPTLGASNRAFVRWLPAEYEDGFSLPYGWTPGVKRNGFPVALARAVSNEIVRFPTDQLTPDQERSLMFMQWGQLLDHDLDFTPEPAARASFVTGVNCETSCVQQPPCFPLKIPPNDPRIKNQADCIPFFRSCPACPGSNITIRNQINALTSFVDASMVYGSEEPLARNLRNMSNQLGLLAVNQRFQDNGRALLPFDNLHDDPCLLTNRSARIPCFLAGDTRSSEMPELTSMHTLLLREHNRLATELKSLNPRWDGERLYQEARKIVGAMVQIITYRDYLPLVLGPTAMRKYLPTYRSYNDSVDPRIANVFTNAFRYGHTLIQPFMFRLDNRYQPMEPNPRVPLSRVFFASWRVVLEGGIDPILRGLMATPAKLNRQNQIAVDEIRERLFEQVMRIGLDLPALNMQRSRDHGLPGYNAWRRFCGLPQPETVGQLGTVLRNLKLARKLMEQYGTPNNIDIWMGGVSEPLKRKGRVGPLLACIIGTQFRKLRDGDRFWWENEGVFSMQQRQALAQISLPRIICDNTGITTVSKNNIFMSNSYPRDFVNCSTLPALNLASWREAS

Myeloperoxidase [2] = target: T1, Myeloperoxidase; test: Inhibition of MPO (unknown origin)
[3] = target: T2, Myeloperoxidase (Homo sapiens) (UniProt P05164); test: Inhibition of MPO in human neutrophils assessed as reduction in PMA-stimulated HOCl production at 1 uM relative to control
T2 sequence (whole entry): T1 sequence (P05164 whole entry)

[4] = target: T2, Myeloperoxidase (Homo sapiens); test: Inhibition of MPO in human neutrophils at 10'4 M using H2O2 as substrate measured for 30 secs in presence of o-dianisidine hydrochloride by spectrophotometric method relative to control
Myeloperoxidase [5] = target: T1, Myeloperoxidase; test: Inhibition of MPO (unknown origin) using H2O2 as substrate

NNC(=O)c1ccc(O)cc1
IC50 (Myeloperoxidase [1]): 2 µM

CC(C)OCCn1c(=S)[nH]c(=O)c2[nH]ccc21
IC50 (Myeloperoxidase [2]): 0.63 µM

O=c1[nH]c(=S)n(C[C@H]2CCCO2)c2nc[nH]c12
inhibition [3]: 90%

O=c1c(O)c(-c2ccc(O)c(O)c2)oc2cc(O)cc(O)c12
inhibition [4]: 100%

CC(=O)Oc1ccccc1C(=O)O [ASPIRIN]
IC50 (Myeloperoxidase [2]): 200 µM

Nc1ccc(S(=O)(=O)c2ccc(N)cc2)cc1 [DAPSONE]
IC50 (Myeloperoxidase [2]): 0.42 µM

COc1ccc2[nH]cc(CCNC(C)=O)c2c1 [MELATONIN]
IC50 (Myeloperoxidase [5]): 3 µM

N[C@@H](Cc1c[nH]c2ccccc12)C(=O)O [TRYPTOPHAN]
IC50 (Myeloperoxidase [5]): 2.25 µM
